{"source": "patent US20230192683A1", "about": "“FUSED RING COMPOUNDS, PREPARATION METHOD THEREFOR, PHARMACEUTICAL COMPOSITIONS AND USE THEREOF” (priority 2020, published 2023)", "key": {"[1]": {"assay": "metabolic stability in pooled human liver microsomes", "conditions": "pooled human liver microsomes, pH 7.4", "experimental": "(§1) Metabolic degradation of a test compound was analyzed using pooled human liver microsomes and male rat liver microsomes, respectively, at 37° C.\n(§2) After pre-incubation at 37° C. for 5 min, NADPH (5 mM, 60 µL) was added to initiate a reaction. A fixed volume of the reaction mixture (30 µL) was sampled into the solution at fixed time points (0, 5, 15, 30, 60 min) to quench the reaction. After centrifugation (4000 rpm, 15 min), the supernatant (100 µL) was mixed with distilled water (100 µL) and then subjected to LC-MS/MS analysis to test the amount of the compound. A half-life was calculated using a first-order reaction kinetic equation (Ct = C0 × e^-ket, T½ = Ln2/ke)."}, "[2]": {"assay": "metabolic stability in male rat liver microsomes", "conditions": "rat liver microsomes, pH 7.4", "experimental": "as §1, §2"}, "[3]": {"assay": "pharmacokinetic evaluation in rats after oral and intravenous administration", "assay_type": "in vivo", "conditions": "Sprague-Dawley, rat, plasma, male SD rats, oral 10.0 mg/kg, intravenous 1.0 mg/kg, route and unit inferred", "experimental": "Using rats as test animals, an LC/MS/MS method was used to determine the drug concentrations in plasma at different times after oral and intravenous administration of Compound 1a and Compound 14 in the rats. The pharmacokinetic behavior of the compounds of the present invention in rats was studied, and pharmacokinetic characteristics thereof were evaluated.\nFor each compound, 6 healthy adult SD (Sprague-Dawley) rats, male, were divided into oral and intravenous administration groups, 3 rats in each group, purchased from Shanghai SIPPR/BK Laboratory Animal Co., Ltd., animal production license number: SCXK (Shanghai) 2008-0016.\nA specific amount of the drug was weighed and dissolved in 5% dimethylacetamide (DMA) + 5% polyethylene glycol-15 hydroxystearate (solutol) + 90% saline solution to prepare a 0.2 mg/mL solution.\nThe SD rats were fasted overnight and were administered orally and intravenously. The oral dose was 10.0 mg/kg, and the intravenous dose was 1.0 mg/kg.\nCompound 1a and Compound 14 were administered orally and intravenously to the rats. At 0.083, 0.25, 0.5, 1, 2, 4, 8, and 24 hours after administration, 0.2 mL of blood was collected from the submandibular vein or other suitable blood vessels, placed in K2-EDTA tubes, and then stored on ice. Within one hour, the plasma was separated by centrifugation at 6,800 g for 6 minutes at 2-8° C., and stored at -80° C. for LC/MS/MS analysis. The rats were fed 4 hours after administration."}, "rat CFA pain model [4]": {"system": "rat CFA pain model", "assay": "single-dose pharmacodynamic study in rat CFA pain model (Von Frey PWT)", "assay_type": "in vivo", "experimental": "Each male SD rat (7-8 weeks old) was injected with 50 microliters of CFA in the center of the left hind paw. A PWT basal value test was conducted 24 hours after modeling, and the drugs were administered after randomization.\nThere were 8 animals in each group, and the animals were weighed and administered according to Table 4.\nFor all groups of animals, paw withdrawal thresholds (PWTs) of the animals were tested using Von Frey after 1 h and 3 h of single administration."}, "rat CFA pain model [5]": {"system": "rat CFA pain model", "assay": "multi-dose oral pharmacodynamic study in rat CFA pain model (Von Frey PWT)", "assay_type": "in vivo", "experimental": "The efficacy of Compound 1a and Compound 14 in the rat CFA pain model was evaluated using a mechanical allodynia method.\nSD rats, 72 males, divided into 9 groups, were purchased from Beijing Vital River Laboratory Animal Technology Co., Ltd.\nThe experimental animals were adaptively reared for 3 to 7 days, and 8 of them were selected as a normal control group, and the other animals were injected with 50 µL of CFA in the center of the left hind paw for modeling. 24 hours after injection, the animals were tested for paw withdrawal threshold (PWT) basal values, and were divided into groups according to the basal values, which were solvent control group, indomethacin group, Compound 1a, 10 mpk group, Compound 1a, 30 mpk group, Compound 1a, 100 mpk group, Compound 14, 3 mpk group, Compound 14, 10 mpk group, and Compound 14, 30 mpk group, with 8 animals in each group. Subsequently, the animals were weighed and administered orally according to Table 6. All the animals were tested for paw withdrawal thresholds (PWT) using Von Frey 1, 2, and 4 hours after administration to further evaluate the efficacy of the compounds of the present invention."}, "human SSTR1": {"molecular_target": "T1, human SSTR1 (Homo sapiens, UniProt P30872)", "T1 construct": "expressed in transfected cells; host or cells: CHO-K1 (membrane homogenates)", "T1 sequence (P30872 whole entry)": "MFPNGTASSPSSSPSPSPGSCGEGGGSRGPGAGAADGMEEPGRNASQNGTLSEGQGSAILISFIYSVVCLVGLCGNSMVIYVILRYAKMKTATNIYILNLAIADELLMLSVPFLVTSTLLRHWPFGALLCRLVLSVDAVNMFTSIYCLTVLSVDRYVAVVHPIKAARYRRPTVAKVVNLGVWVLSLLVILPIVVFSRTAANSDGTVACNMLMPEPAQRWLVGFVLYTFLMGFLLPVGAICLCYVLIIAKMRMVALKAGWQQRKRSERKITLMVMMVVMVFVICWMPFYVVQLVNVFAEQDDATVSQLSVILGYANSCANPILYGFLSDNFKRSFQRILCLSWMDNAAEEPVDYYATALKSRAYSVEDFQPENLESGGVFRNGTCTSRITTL", "assay": "biochemical", "conditions": "25° C., 2 hours, Cheng-Prusoff; read-out: Binding Ki (nM) SSTR1", "experimental": "(§3) Cell membranes were then filtered and washed, and protein-bound radioactivity was measured with a suitable instrument. The Ki values of corresponding targets were calculated using a Cheng-Prusoff formula."}, "human SSTR2": {"molecular_target": "T2, human SSTR2 (Homo sapiens, UniProt P30874)", "T2 construct": "expressed in transfected cells; host or cells: CHO-K1 (membrane homogenates)", "T2 sequence (P30874 whole entry)": "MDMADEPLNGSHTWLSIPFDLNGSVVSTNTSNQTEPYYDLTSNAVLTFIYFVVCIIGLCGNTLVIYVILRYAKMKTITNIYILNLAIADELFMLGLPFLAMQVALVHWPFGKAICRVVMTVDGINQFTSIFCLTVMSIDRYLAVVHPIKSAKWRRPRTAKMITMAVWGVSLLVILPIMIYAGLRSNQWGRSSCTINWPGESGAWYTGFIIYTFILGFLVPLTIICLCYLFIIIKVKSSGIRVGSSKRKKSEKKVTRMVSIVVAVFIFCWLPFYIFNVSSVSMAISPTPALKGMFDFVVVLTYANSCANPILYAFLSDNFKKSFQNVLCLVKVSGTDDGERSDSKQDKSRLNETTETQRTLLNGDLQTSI", "assay": "biochemical", "conditions": "25° C., 2 hours, Cheng-Prusoff; read-out: Binding Ki (nM) SSTR2", "experimental": "as §3"}, "human SSTR3": {"molecular_target": "T3, human SSTR3 (Homo sapiens, UniProt P32745)", "T3 construct": "expressed in transfected cells; host or cells: CHO-K1 (membrane homogenates)", "T3 sequence (P32745 whole entry)": "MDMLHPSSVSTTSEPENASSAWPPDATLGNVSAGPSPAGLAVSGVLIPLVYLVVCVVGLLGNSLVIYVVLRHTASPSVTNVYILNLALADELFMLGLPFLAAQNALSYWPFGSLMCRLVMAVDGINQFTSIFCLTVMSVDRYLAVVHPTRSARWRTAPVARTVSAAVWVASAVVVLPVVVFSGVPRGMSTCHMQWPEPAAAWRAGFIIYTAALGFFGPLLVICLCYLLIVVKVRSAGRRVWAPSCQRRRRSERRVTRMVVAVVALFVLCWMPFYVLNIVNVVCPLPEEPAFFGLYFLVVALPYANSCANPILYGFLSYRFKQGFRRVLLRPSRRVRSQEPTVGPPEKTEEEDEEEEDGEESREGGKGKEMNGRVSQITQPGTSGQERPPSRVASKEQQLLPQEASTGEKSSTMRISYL", "assay": "biochemical", "conditions": "25° C., 2 hours, Cheng-Prusoff; read-out: Binding Ki (nM) SSTR3", "experimental": "as §3"}, "human SSTR5": {"molecular_target": "T4, human SSTR5 (Homo sapiens, UniProt P35346)", "T4 construct": "expressed in transfected cells; host or cells: CHO-K1 (membrane homogenates)", "T4 sequence (P35346 whole entry)": "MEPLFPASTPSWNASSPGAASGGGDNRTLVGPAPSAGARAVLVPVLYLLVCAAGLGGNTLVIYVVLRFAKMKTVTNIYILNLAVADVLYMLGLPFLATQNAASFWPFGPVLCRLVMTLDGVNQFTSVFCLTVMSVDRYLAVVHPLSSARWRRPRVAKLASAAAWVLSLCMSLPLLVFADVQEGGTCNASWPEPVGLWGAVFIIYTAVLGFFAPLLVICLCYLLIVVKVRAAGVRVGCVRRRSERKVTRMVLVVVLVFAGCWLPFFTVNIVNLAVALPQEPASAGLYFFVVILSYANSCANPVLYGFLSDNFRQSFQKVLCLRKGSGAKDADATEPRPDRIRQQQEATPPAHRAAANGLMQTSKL", "assay": "biochemical", "conditions": "25° C., 2 hours, Cheng-Prusoff; read-out: Binding Ki (nM) SSTR5", "experimental": "as §3"}, "human SSTR4": {"molecular_target": "T5, human SSTR4 (Homo sapiens, UniProt P31391)", "T5 construct": "expressed in transfected cells", "T5 sequence (P31391 whole entry)": "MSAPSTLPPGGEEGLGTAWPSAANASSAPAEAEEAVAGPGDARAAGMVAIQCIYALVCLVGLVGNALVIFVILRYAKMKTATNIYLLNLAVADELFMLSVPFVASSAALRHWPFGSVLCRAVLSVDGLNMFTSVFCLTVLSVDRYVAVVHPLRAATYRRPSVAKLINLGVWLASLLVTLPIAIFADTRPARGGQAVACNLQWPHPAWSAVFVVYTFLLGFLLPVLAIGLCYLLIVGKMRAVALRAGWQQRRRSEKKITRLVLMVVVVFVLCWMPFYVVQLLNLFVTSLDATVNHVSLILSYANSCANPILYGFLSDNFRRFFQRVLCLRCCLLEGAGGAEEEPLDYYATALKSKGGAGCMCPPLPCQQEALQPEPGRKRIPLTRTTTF", "assay": "radioligand binding assay, [125I]Somatostatin-14, CHO-K1 membranes", "experimental": "as §3"}}, "note": "Marks after values point to notes of the source that are not given here."}
{"compound": "CSc1cccc2c(C(C)(C)NC(=O)[C@H]3[C@@H]4CNC[C@@H]43)nn(C)c12", "note": "[Compound 14, (1R,5S,6R)-N-(2-(1-Methyl-7-(Methylthio)-1H-Indazol-3-yl)Prop-2-yl)-3-Azabicyclo[3.1.0]Hexane-6-Carboxamide]", "values": [{"measurement": "half-life at 1 µM", "setting": "[1]", "value": "> 186", "unit": "min"}, {"measurement": "half-life at 1 µM", "setting": "[2]", "value": "> 186", "unit": "min"}, {"measurement": "half-life", "setting": "[3]", "value": "155 ± 30", "unit": "min"}, {"measurement": "Vd", "setting": "[3]; read-out: Apparent volume of distribution", "value": "7.09 ± 1.08", "unit": "L/kg"}, {"measurement": "clearance", "setting": "[3]; read-out: Clearance rate", "value": "48.7 ± 5.01", "unit": "mL/min/kg"}, {"measurement": "Mechanical allodynia test (PWT (g), mean) Baseline", "setting": "rat CFA pain model [4]; 10 mg/kg I.P. group, baseline 24 h after CFA, before administration", "value": 3.566, "unit": "g"}, {"measurement": "Mechanical allodynia test (PWT (g), mean) 1 hour", "setting": "rat CFA pain model [4]; 10 mg/kg I.P., 1 hour after single administration", "value": 4.628, "unit": "g"}, {"measurement": "efficacy compared with Control Compound A (in words)", "setting": "rat CFA pain model [4]; 10 mg/kg I.P., 3 hours after administration", "value": "significantly better than that of Control Compound A"}, {"measurement": "Mechanical allodynia test (PWT (g), mean) 3 hours", "setting": "rat CFA pain model [4]; 10 mg/kg I.P., 3 hours after single administration", "value": "8.886 **** # g"}, {"measurement": "inhibition of CFA-induced mechanical allodynia (in words)", "setting": "rat CFA pain model [4]; 10 mg/kg I.P., single administration, FIG. 1", "value": "inhibited CFA-induced mechanical allodynia"}, {"measurement": "Paw withdrawal threshold (PWT(g)) (average) 0 hours", "setting": "rat CFA pain model [5]; 3 mg/kg oral group", "value": 3.118, "unit": "g"}, {"measurement": "Paw withdrawal threshold (PWT(g)) (average) 1 hour", "setting": "rat CFA pain model [5]; 3 mg/kg oral", "value": 3.535, "unit": "g"}, {"measurement": "Paw withdrawal threshold (PWT(g)) (average) 2 hours", "setting": "rat CFA pain model [5]; 3 mg/kg oral", "value": 5.369, "unit": "g"}, {"measurement": "Paw withdrawal threshold (PWT(g)) (average) 4 hours", "setting": "rat CFA pain model [5]; 3 mg/kg oral", "value": 5.335, "unit": "g"}, {"measurement": "Paw withdrawal threshold (PWT(g)) (average) 0 hours", "setting": "rat CFA pain model [5]; 10 mg/kg oral group", "value": 3.118, "unit": "g"}, {"measurement": "Paw withdrawal threshold (PWT(g)) (average) 1 hour", "setting": "rat CFA pain model [5]; 10 mg/kg oral", "value": 4.155, "unit": "g"}, {"measurement": "Paw withdrawal threshold (PWT(g)) (average) 2 hours", "setting": "rat CFA pain model [5]; 10 mg/kg oral", "value": 5.789, "unit": "g"}, {"measurement": "Paw withdrawal threshold (PWT(g)) (average) 4 hours", "setting": "rat CFA pain model [5]; 10 mg/kg oral", "value": "7.308 ** g"}, {"measurement": "Paw withdrawal threshold (PWT(g)) (average) 0 hours", "setting": "rat CFA pain model [5]; 30 mg/kg oral group", "value": 3.079, "unit": "g"}, {"measurement": "Paw withdrawal threshold (PWT(g)) (average) 1 hour", "setting": "rat CFA pain model [5]; 30 mg/kg oral", "value": 4.051, "unit": "g"}, {"measurement": "Paw withdrawal threshold (PWT(g)) (average) 2 hours", "setting": "rat CFA pain model [5]; 30 mg/kg oral", "value": 5.683, "unit": "g"}, {"measurement": "Paw withdrawal threshold (PWT(g)) (average) 4 hours", "setting": "rat CFA pain model [5]; 30 mg/kg oral", "value": "8.213 **** g"}, {"measurement": "inhibition of CFA-induced mechanical hyperalgesia (in words)", "setting": "rat CFA pain model [5]; oral 3, 10, 30 mg/kg, 4 hours after administration", "value": "dose-dependently inhibit"}, {"measurement": "onset dose", "setting": "rat CFA pain model [5]; oral, inhibition of CFA-induced mechanical hyperalgesia", "value": 10, "unit": "mg/kg"}, {"measurement": "Ki", "setting": "human SSTR1", "value": 799, "unit": "nM"}, {"measurement": "Ki", "setting": "human SSTR2", "value": "> 5310", "unit": "nM"}, {"measurement": "Ki", "setting": "human SSTR3", "value": "> 3420", "unit": "nM"}, {"measurement": "Ki", "setting": "human SSTR5", "value": "> 5650", "unit": "nM"}, {"measurement": "Ki", "setting": "human SSTR4", "value": 0.51, "unit": "nM"}, {"measurement": "SSTR4 /SSTR 1", "setting": "human SSTR4; ratio of binding Ki values, selectivity", "value": 879.5}]}
